41 molecules from ChEMBL document CHEMBL1142978, “Probing the anticancer activity of nucleoside analogues: a QSAR model approach using an internally consistent training set” (J Med Chem, 2007) can be followed below.

This assay can be described thus: Cytotoxicity against mouse L1210/0 cells after 48 hrs. The format is cell-based. The note with it: Mus musculus, L1210/0, 48 h.

Take `C[C@H](O)C1CC(CCn2nnc3c(N)ncnc32)C1(C)C` (stereo partly specified): the IC50 is > 200 µM. For `Nc1ncnc2c1ncn2CC1CCC(CO)C1` (stereo unspecified) the value was > 200 µM. For `Nc1nc(N)c2ncn([C@H]3CCCC[C@H]3CO)c2n1` the value was > 200 µM. Under `CCOc1ncnc2c1ncn2C[C@@H]1C[C@H](CO)c2ccccc21` stands > 200 µM; under `Nc1ncnc2c1nnn2[C@@H]1C[C@H](CO)[C@@H](CO)[C@H]1CO`, > 200 µM.

On to `OC[C@H]1CCC[C@@H]1n1cnc2c(Cl)ncnc21`, for which the IC50 was > 200 µM. As to `O=C1O/C(=C\Cn2ccc(=O)[nH]c2=O)C(Cc2ccccc2)=C1O`, the IC50 was > 200 µM. For the molecule `CCCNc1ncnc2c1ncn2C[C@@H]1C[C@H](CO)c2ccccc21`, the IC50 is > 200 µM. Under `C[C@H](O)C1CC(Cn2nnc3c(N)ncnc32)C1(C)C` (stereo partly specified) stands > 200 µM; under `Nc1ncnc2c1nnn2C1C[C@H](CO)[C@@H](CO)[C@@H]1CO` (stereo partly specified), > 200 µM; under `CC1(C)C(CO)CC1Cn1nnc2c(Cl)nc(N)nc21` (stereo unspecified), > 200 µM. Under `COC1=C(OC)/C(=C/C(n2cnc3c(N)ncnc32)P(O)(=S)OC)OC1=O` (stereo unspecified) stands > 200 µM; under `OC[C@@H]1[C@@H]2COC[C@H]2C[C@H]1n1cnc2c(Cl)ncnc21`, > 200 µM.

Regarding `CC1(C)[C@@H](CO)CC[C@@]1(C)Cn1nnc2c(N)ncnc21`, the IC50 is > 200 µM. As to `CC1(C)C(CO)CC1Cn1cnc2c(N)nc(N)nc21` (stereo unspecified), the IC50 was > 200 µM.

For `CC(C)Nc1ncnc2c1ncn2C1C[C@@H](CO)[C@@H](CO)C1` (stereo partly specified), the 50% inhibitory concentration (IC50) is > 200 µM. Turning to `Nc1ncnc2c1ncn2[C@@H]1O[C@H](C=O)C[C@@H]1O`, the IC50 was > 200 µM. Under `Nc1ncnc2c1ncn2[C@@H]1O[C@H](/C=C/F)[C@H](O)[C@@H]1O` stands > 200 µM; under `Nc1ncnc2c1nnn2C[C@H]1CCC[C@H]1CO`, > 200 µM; under `C[C@H](O)C1CC(Cn2cnc3c(N)ncnc32)C1(C)C` (stereo partly specified), > 200 µM. Consider `COC1=C(OC)C(=CCn2cnc3c(N)ncnc32)OC1=O`, for which the IC50 was > 200 µM.

On to `C[C@@]1(CO)O[C@H](c2ccc(N)cc2F)C[C@@H]1O`, for which the IC50 was > 200 µM. Under `Nc1ncnc2c1ncn2C[C@@H]1C[C@H](CO)c2ccccc21` stands > 200 µM; under `O=c1[nH]c(=O)n(COCCO)cc1/C=C/Br`, > 200 µM. Under `O=C1O/C(=C\Cn2ccc(=O)[nH]c2=O)C(O)=C1O` stands > 200 µM; under `Nc1nc(N)c2nnn([C@H]3CCCC[C@H]3CO)c2n1`, > 200 µM; under `CC1(C)C(CO)CC1Cn1cnc2c(Cl)nc(N)nc21` (stereo unspecified), > 200 µM. Turning to `COc1ncnc2c1ncn2C[C@@H]1C[C@H](CO)c2ccccc21`, the IC50 is > 200 µM.

Regarding `C[C@H](O)C1CC(CCn2cnc3c(N)ncnc32)C1(C)C` (stereo partly specified), the IC50 is > 200 µM.

For `CC1(C)C(CO)CC1Cn1nnc2c(N)nc(N)nc21` (stereo unspecified), the IC50 was > 200 µM.

Consider `COC1=C(OC)/C(=C/CP(=O)(OC)OC)OC1=O`, for which the IC50 is > 200 µM. Under `CC1(C)[C@@H](CO)CC[C@@]1(C)Cn1cnc2c(N)ncnc21` stands > 200 µM; under `OC[C@@H]1CC(n2cnc3c(NC4CC4)ncnc32)C[C@@H]1CO` (stereo partly specified), > 200 µM; under `Nc1ncnc2c1ncn2[C@@H]1C[C@@H]2COC[C@H]2[C@H]1CO`, > 200 µM.

As to `C[C@@]1(CO)O[C@H](c2cc(F)c(N)cc2F)C[C@@H]1O`, the IC50 is > 200 µM.

On to `Nc1ncnc2c1ncn2[C@@H]1CCC[C@H]1CO`, for which the IC50 is > 200 µM.

Turning to `Nc1ncnc2c1ncn2C1C[C@@H](CO)[C@@H](CO)C1` (stereo partly specified), the IC50 was > 200 µM. For `Nc1nc(Cl)c2ncn([C@H]3CCCC[C@H]3CO)c2n1` the value was > 200 µM; for `O=C1O/C(=C\Cn2cc(C(F)(F)F)c(=O)[nH]c2=O)C(O)=C1O`, > 200 µM. For `OC[C@H]1C[C@@H](Cn2cnc3c(NC4CC4)ncnc32)c2ccccc21` the value was > 200 µM. Under `COc1ccc(C(=O)/C=C/c2cc(O)nc(O)n2)cc1` stands > 200 µM.
